Test results published in US12721349B2, “Method for promoting bacterial cell wall degradation” (KABUSHIKI KAISHA YAKULT HONSHA, priority 2019, dated 2026).
In brackets after ≈: the same amount, converted by molar mass.

Tests used:
[1] = system: Lactobacillus casei YIT 9029; assay: Cell wall degradation of YIT 9029 by lysozyme and mutanolysin (recombinant) with added saccharide, turbidity OD615; assay type: cell-based; conditions: saccharide 0.5 M, 37° C.; for cell wall degradation-promoting effect / cell wall degradation-promoting effect after 1 hour of the reaction: FIG. 4; for cell wall degradation rate compared with the reaction in which no saccharide was added: up to 24 hours, FIG. 1
Method: Lactobacillus casei YIT 9029 (hereinafter, referred to as YIT 9029) was used. Thirty microliters of the pre-cultured bacterial solution of about 2×10^9 CFU/mL cultured in the MRS Broth was inoculated in 30 mL of the MRS Broth prepared in the above (2) and then cultured at 37° C. for 24 hours. […] The bacteria were suspended in a 5 mM Tris-maleate buffer solution (manufactured by Sigma-Aldrich Co.) (pH 6.4) of the same volume as that of the original bacterial solution, and 100 μg of lysozyme from chicken egg white lyophilized powder (manufactured by Sigma-Aldrich Co., hereinafter, referred to as lysozyme), which is egg white lysozyme, and 100 U of mutanolysin (recombinant) (manufactured by A&A Biotechnology) were added per 1 mL of the suspension. The reaction solution was treated at 37° C. for 24 hours. In addition, in order to examine the influence of the addition of a saccharide on cell wall degradation reaction, the same reaction was performed using a Tris-maleate buffer solution containing D-glucose or L-rhamnose at a final concentration of 0.5 M instead of the Tris-maleate buffer solution. Each reaction was performed in triplicate. The turbidity (OD615) of the bacterial suspension at 615 nm (maximal absorption wavelength; measurement wavelength range: 575-660 nm) was measured over time using a spectrophotometer PiCOSCOPE PAS-110 (manufactured by Ushio Inc.), and the degradation rate was calculated by the following equation (1). The degradation rate was shown by the mean±standard deviation of triplicate. Degradation rate=1−(OD615 after reaction/OD615 before reaction) (1). (6) Result […] Each reaction was performed in triplicate. The same reaction as in Example 1 was performed except that D-arabinose, L-arabinose, D-lyxose, L-lyxose, D-xylose, L-xylose, D-ribose, L-ribose, D-fucose, L-fucose, D-mannose, L-mannose, D-galactose, or D-fructose was added as the saccharide, and the cell wall degradation-promoting effect of each saccharide was examined. Each reaction was performed in triplicate. […] Each reaction was performed in triplicate.

[2] = Solubility in water at room temperature; assay type: physicochemical; conditions: read-out: upper limit of the solubility in water
[3] = system: Lactobacillus casei YIT 9029; assay: Cell wall degradation of YIT 9029 by mutanolysin (recombinant) alone with added saccharide, turbidity OD615; assay type: cell-based; conditions: 37° C.; for degradation-promoting effect, mutanolysin alone: 0.5, 1.0 or 1.5 M, FIG. 5B
Method: The bacteria were suspended in a 5 mM Tris-maleate buffer solution (manufactured by Sigma-Aldrich Co.) (pH 6.4) of the same volume as that of the original bacterial solution, and 100 μg of lysozyme from chicken egg white lyophilized powder (manufactured by Sigma-Aldrich Co., hereinafter, referred to as lysozyme), which is egg white lysozyme, and 100 U of mutanolysin (recombinant) (manufactured by A&A Biotechnology) were added per 1 mL of the suspension. The reaction solution was treated at 37° C. for 24 hours. In addition, in order to examine the influence of the addition of a saccharide on cell wall degradation reaction, the same reaction was performed using a Tris-maleate buffer solution containing D-glucose or L-rhamnose at a final concentration of 0.5 M instead of the Tris-maleate buffer solution. Each reaction was performed in triplicate. The turbidity (OD615) of the bacterial suspension at 615 nm (maximal absorption wavelength; measurement wavelength range: 575-660 nm) was measured over time using a spectrophotometer PiCOSCOPE PAS-110 (manufactured by Ushio Inc.), and the degradation rate was calculated by the following equation (1). The degradation rate was shown by the mean±standard deviation of triplicate. Degradation rate=1−(OD615 after reaction/OD615 before reaction) (1). (6) Result It was expected from Examples 1 to 4 that a saccharide such as D-arabinose increases the activity of mutanolysin to promote the degradation of cell wall. However, since a possibility that the saccharide increases the activity of lysozyme that has been added together cannot be excluded, the degradation rate when YIT 9029 was treated with mutanolysin or lysozyme alone was examined using some saccharides. […] Each reaction was performed without replicates. […] Each reaction was performed in triplicate.

[4] = system: Lactobacillus casei YIT 9029; assay: Cell wall degradation of YIT 9029 by lysozyme and mutanolysin (recombinant) with added saccharide, turbidity OD615; assay type: cell-based; conditions: for difference between the promotion effects of the D-form and the L-form: 0.1 M to 1.5 M; for difference between the promotion effects of the D-form and the L-form / concentration dependence of the degradation rate: FIG. 6; for concentration dependence of the degradation rate: concentration range of 0.1 M and 1.0 M
[5] = system: Lactobacillus casei YIT 9029; assay: Cell wall degradation of YIT 9029 by lysozyme alone with added saccharide, turbidity OD615; assay type: cell-based; conditions: 1.5 M, 37° C., FIG. 5A
Method: The bacteria were suspended in a 5 mM Tris-maleate buffer solution (manufactured by Sigma-Aldrich Co.) (pH 6.4) of the same volume as that of the original bacterial solution, and 100 μg of lysozyme from chicken egg white lyophilized powder (manufactured by Sigma-Aldrich Co., hereinafter, referred to as lysozyme), which is egg white lysozyme, and 100 U of mutanolysin (recombinant) (manufactured by A&A Biotechnology) were added per 1 mL of the suspension. The reaction solution was treated at 37° C. for 24 hours. In addition, in order to examine the influence of the addition of a saccharide on cell wall degradation reaction, the same reaction was performed using a Tris-maleate buffer solution containing D-glucose or L-rhamnose at a final concentration of 0.5 M instead of the Tris-maleate buffer solution. Each reaction was performed in triplicate. The turbidity (OD615) of the bacterial suspension at 615 nm (maximal absorption wavelength; measurement wavelength range: 575-660 nm) was measured over time using a spectrophotometer PiCOSCOPE PAS-110 (manufactured by Ushio Inc.), and the degradation rate was calculated by the following equation (1). The degradation rate was shown by the mean±standard deviation of triplicate. Degradation rate=1−(OD615 after reaction/OD615 before reaction) (1). […]

[6] = system: Lactobacillus casei YIT 9029; assay: Cell wall degradation of YIT 9029 by lysozyme and mutanolysin from Streptomyces globisporus ATCC 21553 with added saccharide, turbidity OD615; assay type: cell-based; conditions: 1.5 M, 37° C. or 50° C., mutanolysin from Streptomyces globisporus ATCC 21553, FIG. 3A
Method: The reaction solution was treated at 37° C. for 24 hours. In addition, in order to examine the influence of the addition of a saccharide on cell wall degradation reaction, the same […] buffer solution. Each reaction was performed in triplicate. The turbidity (OD615) of the bacterial suspension at 615 nm (maximal absorption wavelength; measurement wavelength range: 575-660 nm) was measured over time using a spectrophotometer PiCOSCOPE PAS-110 (manufactured by Ushio Inc.), and the degradation rate was calculated by the following equation (1). The degradation rate was shown by the mean±standard deviation of triplicate. Degradation rate=1−(OD615 after reaction/OD615 before reaction) (1). (6) Result […] Each reaction was performed without replicates.

## O=C[C@@H](O)[C@H](O)[C@@H](O)CO [L-xylose]
[1]
  cell wall degradation-promoting effect: showed the cell wall degradation-promoting effect

## O=C[C@@H](O)[C@H](O)[C@H](O)CO [D-arabinose]
[2]
  solubility: ~1500 mM (≈ 225 mg/mL)
[3]; 1.5 M, FIG. 5A
  promotion of degradation, mutanolysin alone: promoted the degradation
[4]; 37° C. or 50° C.
  difference between the promotion effects of the D-form and the L-form: no difference
[4]; 1.5 M, 37° C., FIG. 5A
  promotion of degradation, mutanolysin and lysozyme in combination: promoted the degradation
[4]; 1.5 M, 50° C., FIG. 7
  degradation rate after 1 hour: 93%
[4]
  concentration dependence of the degradation rate: concentration dependence was observed
[4]; reaction for a short time, FIG. 7
  degradation rate at 50° C. compared with 37° C.: higher
[1]
  degradation rate after 1 hour of the reaction relative to the reaction in which no saccharide was added: about 4 times
  cell wall degradation-promoting effect: showed the cell wall degradation-promoting effect
[5]
  promotion of degradation, lysozyme alone: did not show significant promotion of degradation

## O=C(CO)[C@@H](O)[C@H](O)[C@H](O)CO [D-fructose]
[1]
  cell wall degradation-promoting effect after 1 hour of the reaction: showed the cell wall degradation-promoting effect

## O=C[C@@H](O)[C@@H](O)[C@H](O)CO [D-lyxose]
[1]
  cell wall degradation-promoting effect: showed the cell wall degradation-promoting effect

## O=C[C@H](O)[C@@H](O)[C@H](O)[C@H](O)CO [D-glucose, reference compound]
[1]
  cell wall degradation rate compared with the reaction in which no saccharide was added: decrease in cell wall degradation rate

## O=C[C@H](O)[C@H](O)[C@@H](O)CO [L-lyxose]
[1]
  cell wall degradation-promoting effect: showed the cell wall degradation-promoting effect

## C[C@H](O)[C@@H](O)[C@@H](O)[C@H](O)C=O [L-fucose]
[3]
  degradation-promoting effect, mutanolysin alone: showed the degradation-promoting effect
[1]
  degradation rate after 1 hour of the reaction relative to the reaction in which no saccharide was added: about 3 times
  cell wall degradation-promoting effect: showed the cell wall degradation-promoting effect

## C[C@H](O)[C@H](O)[C@@H](O)[C@@H](O)C=O [L-rhamnose]
[6]
  cell wall degradation rate compared with the reaction in which no saccharide was added: increase in cell wall degradation rate
[3]
  degradation-promoting effect, mutanolysin alone: showed the degradation-promoting effect
[4]; 0.5, 1.0, 1.5 M, 37° C. or 50° C., FIG. 2
  degradation rate with increasing concentrations of L-rhamnose: increased with increasing concentrations
[4]; 1.5 M, 37° C.
  degradation rate after 24 hours of the reaction: 0.97
[4]; 1.5 M, 37° C. or 50° C., mutanolysin (recombinant), FIG. 3B
  cell wall degradation rate compared with the reaction in which no saccharide was added: increase in cell wall degradation rate
[4]; 1.5 M, 37° C., rate = 1-(OD615 after/OD615 before)
  degradation rate after 5 hours of the reaction: 0.83
[4]; 1.5 M, 50° C.
  degradation rate after 24 hours of the reaction: 0.87
[4]; 1.5 M, 50° C., rate = 1-(OD615 after/OD615 before)
  degradation rate after 1 hour of the reaction: 0.69
[1]
  cell wall degradation rate compared with the reaction in which no saccharide was added: increase in cell wall degradation rate

## O=C[C@H](O)[C@H](O)[C@H](O)CO [D-ribose]
[1]
  cell wall degradation-promoting effect: showed the cell wall degradation-promoting effect

## O=C[C@@H](O)[C@@H](O)[C@@H](O)CO [L-ribose]
[1]
  cell wall degradation-promoting effect: showed the cell wall degradation-promoting effect

## O=C[C@H](O)[C@@H](O)[C@@H](O)CO [L-arabinose]
[2]
  solubility: ~1500 mM (≈ 225 mg/mL)
[3]
  degradation-promoting effect, mutanolysin alone: showed the degradation-promoting effect
[4]; 37° C. or 50° C.
  difference between the promotion effects of the D-form and the L-form: no difference
[4]
  concentration dependence of the degradation rate: concentration dependence was observed
[1]
  degradation rate after 1 hour of the reaction relative to the reaction in which no saccharide was added: about 4 times
  cell wall degradation-promoting effect: showed the cell wall degradation-promoting effect

## O=C[C@H](O)[C@@H](O)[C@H](O)CO [D-xylose]
[1]
  cell wall degradation-promoting effect after 1 hour of the reaction: showed the cell wall degradation-promoting effect

## O=C[C@H](O)[C@H](O)[C@@H](O)[C@@H](O)CO [L-mannose]
[3]
  degradation-promoting effect, mutanolysin alone: showed the degradation-promoting effect
[1]
  cell wall degradation-promoting effect: showed the cell wall degradation-promoting effect
